Measurements: publication PMC9948168, “Vanillin-Based Indolin-2-one Derivative Bearing a Pyridyl Moiety as a Promising Anti-Breast Cancer Agent via Anti-Estrogenic Activity” (ACS Omega, 2023)

Tests used:
Assay in all cases: NCI-60 one-dose screening
Type in all cases: cell-based
ACHN = conditions: Homo sapiens, Renal Cancer, read-out: GI (%)
Experimental: (§1) Compounds 5a–c and 6a–o were tested using standard NCI protocols for in vitro activity at the National Cancer Institute (NCI, Bethesda, Maryland, USA), wherein compounds were tested using one single concentration of 10 μM against 60 cell lines of nine different cancer types. […] Excellent activity was observed against a single NSCLC cell line, EKVX, for compounds 5a–c (GIs = 77–86%, Table 1) with no observed activity for indoles with substituted vanillin 6a–o.
(§2) Anticancer activity was tested against 60 cancer cell lines at the NCI, Bethesda, USA. The screening process was done with a single dosage of 10 μM according to NCI protocols published on the NCI website https://dtp.cancer.gov/discovery_development/nci-60/methodology.htm.

BT-549 = conditions: Homo sapiens, BT-549, Breast Cancer, read-out: GI (%)
Experimental: as §1, §2

CCRF-CEM = conditions: Homo sapiens, Leukemias, read-out: GI (%)
Experimental: as §1, §2

COLO 205 = conditions: Homo sapiens, COLO 205, Colon Cancer, read-out: GI (%)
Experimental: as §1, §2

DU-145 = conditions: Homo sapiens, DU-145, Prostate Cancer, read-out: GI (%)
Experimental: as §1, §2

EKVX = conditions: Homo sapiens, Non-Small Cell Lung Cancer, read-out: GI (%)
Experimental: as §1, §2

HCT-116 = conditions: Homo sapiens, HCT-116, Colon Cancer, read-out: GI (%)
Experimental: as §1, §2

HL-60(TB) = conditions: Homo sapiens, Leukemias, read-out: GI (%)
Experimental: as §1, §2

HOP-62 = conditions: Homo sapiens, HOP-62, Non-Small Cell Lung Cancer, read-out: GI (%)
Experimental: as §1, §2

HOP-92 = conditions: Homo sapiens, HOP-92, Non-Small Cell Lung Cancer, read-out: GI (%)
Experimental: as §1, §2

HS 578T = conditions: Homo sapiens, Breast Cancer, read-out: GI (%)
Experimental: as §1, §2

HT29 = conditions: Homo sapiens, HT-29, HT29, Colon Cancer, read-out: GI (%)
Experimental: as §1, §2

IGROV1 = conditions: Homo sapiens, IGROV-1, IGROV1, Ovarian Cancer, read-out: GI (%)
Experimental: as §1, §2

KM12 = conditions: Homo sapiens, KM12, Colon Cancer, read-out: GI (%)
Experimental: as §1, §2

LOX IMVI = conditions: Homo sapiens, Melanoma, read-out: GI (%)
Experimental: as §1, §2

MALME-3M = conditions: Homo sapiens, Melanoma, read-out: GI (%)
Experimental: as §1, §2

MOLT-4 = conditions: Homo sapiens, MOLT-4, Leukemias, read-out: GI (%)
Experimental: as §1, §2

NCI-H226 = conditions: Homo sapiens, NCI-H226, Non-Small Cell Lung Cancer, read-out: GI (%)
Experimental: as §1, §2

NCI-H23 = conditions: Homo sapiens, NCI-H23, Non-Small Cell Lung Cancer, read-out: GI (%)
Experimental: as §1, §2

NCI-H322M = conditions: Homo sapiens, Non-Small Cell Lung Cancer, read-out: GI (%)
Experimental: as §1, §2

NCI-H460 = conditions: Homo sapiens, NCI-H460, Non-Small Cell Lung Cancer, read-out: GI (%)
Experimental: as §1, §2

NCI-H522 = conditions: Homo sapiens, NCI-H522, Non-Small Cell Lung Cancer, read-out: GI (%)
Experimental: as §1, §2

NCI/ADR-RES = conditions: Homo sapiens, Ovarian Cancer, read-out: GI (%)
Experimental: as §1, §2

OVCAR-5 = conditions: Homo sapiens, OVCAR-5, Ovarian Cancer, read-out: GI (%)
Experimental: as §1, §2

RPMI-8226 = conditions: Homo sapiens, RPMI-8226, Leukemias, read-out: GI (%)
Experimental: as §1, §2

SF-295 = conditions: Homo sapiens, SF-295, CNS Cancer, read-out: GI (%)
Experimental: as §1, §2

SK-MEL-28 = conditions: Homo sapiens, SK-MEL-28, Melanoma, read-out: GI (%)
Experimental: as §1, §2

SK-MEL-5 = conditions: Homo sapiens, SK-MEL-5, Melanoma, read-out: GI (%)
Experimental: as §1, §2

SK-OV-3 = conditions: Homo sapiens, SK-OV-3, Ovarian Cancer, read-out: GI (%)
Experimental: as §1, §2

SN12C = conditions: Homo sapiens, Renal Cancer, read-out: GI (%)
Experimental: as §1, §2

SNB-19 = conditions: Homo sapiens, SNB-19, CNS Cancer, read-out: GI (%)
Experimental: as §1, §2

SNB-75 = conditions: Homo sapiens, SNB-75, CNS Cancer, read-out: GI (%)
Experimental: as §1, §2

SR = conditions: Homo sapiens, Leukemias, read-out: GI (%)
Experimental: as §1, §2

T-47D = conditions: Homo sapiens, T47D, Breast Cancer, read-out: GI (%)
Experimental: as §1, §2

U251 = conditions: Homo sapiens, U-251, U251, CNS Cancer, read-out: GI (%)
Experimental: as §1, §2

UACC-257 = conditions: Homo sapiens, UACC-257, Melanoma, read-out: GI (%)
Experimental: as §1, §2

Row | SMILES | inhibition at 10 µM (ACHN) [%] | inhibition at 10 µM (BT-549) [%] | inhibition at 10 µM (COLO 205) [%] | inhibition at 10 µM (DU-145) [%] | inhibition at 10 µM (EKVX) [%] | inhibition at 10 µM (HCT-116) [%] | inhibition at 10 µM (HL-60(TB)) [%] | inhibition at 10 µM (HOP-62) [%] | inhibition at 10 µM (HOP-92) [%] | inhibition at 10 µM (HS 578T) [%] | inhibition at 10 µM (HT29) [%] | inhibition at 10 µM (IGROV1) [%] | inhibition at 10 µM (KM12) [%] | inhibition at 10 µM (LOX IMVI) [%] | inhibition at 10 µM (MALME-3M) [%] | inhibition at 10 µM (MOLT-4) [%] | inhibition at 10 µM (NCI-H226) [%] | inhibition at 10 µM (NCI-H23) [%] | inhibition at 10 µM (NCI-H322M) [%] | inhibition at 10 µM (NCI-H460) [%] | further results
1 | COc1cc(C=C2C(=O)Nc3ccccc32)ccc1O (mixture of isomers) [5a] | 22.8 | 25.6 | -13.8 | 11.2 | 82.6 | 24.2 | 15.1 | 20.7 | 35 | 47.9 | -1.86 | 25.6 | 9.4 | 28.6 | 7.51 | 10.4 | -2.09 | 16 | 19.5 | 8.35 | inhibition at 10 µM (CCRF-CEM): 10.2%; inhibition at 10 µM (NCI-H522): 27.4%; inhibition at 10 µM (NCI/ADR-RES): 8.73%; inhibition at 10 µM (OVCAR-5): -2.51%; inhibition at 10 µM (RPMI-8226): 10.8%; inhibition at 10 µM (SF-295): 7.71%; inhibition at 10 µM (SK-MEL-28): 6.91%; inhibition at 10 µM (SK-MEL-5): 17.3%; inhibition at 10 µM (SK-OV-3): 5.29%; inhibition at 10 µM (SN12C): 16%; inhibition at 10 µM (SNB-19): 6.94%; inhibition at 10 µM (SNB-75): 50.6%; inhibition at 10 µM (SR): 36%; inhibition at 10 µM (T-47D): 31.6%; inhibition at 10 µM (U251): 22.2%; inhibition at 10 µM (UACC-257): 11.3%
2 | COc1cc(C=C2C(=O)Nc3ccc(Cl)cc32)ccc1O (mixture of isomers) [5b] | 26 | 25 | -11.7 | 33.1 | 86.3 | 21.2 | 23.1 | 16.5 | 34.6 | 80.1 | -0.33 | 16.2 | 7.96 | 22.5 | 3.24 | 23.1 | 2.25 | 15.6 | 14.1 | 7.4 | inhibition at 10 µM (CCRF-CEM): 22.6%; inhibition at 10 µM (NCI-H522): 20.1%; inhibition at 10 µM (NCI/ADR-RES): 9.66%; inhibition at 10 µM (OVCAR-5): 0.41%; inhibition at 10 µM (RPMI-8226): 23.6%; inhibition at 10 µM (SF-295): 8.92%; inhibition at 10 µM (SK-MEL-28): 5.35%; inhibition at 10 µM (SK-MEL-5): 31.5%; inhibition at 10 µM (SK-OV-3): -6.08%; inhibition at 10 µM (SN12C): 14.6%; inhibition at 10 µM (SNB-19): 20.7%; inhibition at 10 µM (SNB-75): 50.1%; inhibition at 10 µM (SR): 47.9%; inhibition at 10 µM (T-47D): 40.9%; inhibition at 10 µM (U251): 39.8%; inhibition at 10 µM (UACC-257): 13.5%
3 | COc1cc(C=C2C(=O)Nc3ccccc32)ccc1OCc1ccccc1 (mixture of isomers) [6a] | 6.95 | 1.2 | -17.8 | 0.43 | 8.21 | 10.3 | -10.5 | -3.56 | 4.67 | -7.03 | -2.25 | 5.2 | -0.02 | 7.61 | 8.77 | 1.73 | -0.06 | -2.84 | 5.18 | 20.2 | inhibition at 10 µM (CCRF-CEM): 9.45%; inhibition at 10 µM (NCI-H522): 9.6%; inhibition at 10 µM (NCI/ADR-RES): 1.52%; inhibition at 10 µM (OVCAR-5): -2.62%; inhibition at 10 µM (RPMI-8226): 1%; inhibition at 10 µM (SF-295): -1.61%; inhibition at 10 µM (SK-MEL-28): -5.94%; inhibition at 10 µM (SK-MEL-5): -3.35%; inhibition at 10 µM (SK-OV-3): -10.3%; inhibition at 10 µM (SN12C): 3.52%; inhibition at 10 µM (SNB-19): 0.53%; inhibition at 10 µM (SNB-75): -0.57%; inhibition at 10 µM (SR): 14.6%; inhibition at 10 µM (T-47D): -13%; inhibition at 10 µM (U251): -6.68%; inhibition at 10 µM (UACC-257): -21.2%
4 | COc1cc(C=C2C(=O)Nc3ccccc32)ccc1OCc1ccccn1 (mixture of isomers) [6e] | 9.08 | -6.45 | -16 | 1.98 | 22.4 | 3.95 | 13 | 7.92 | 28.1 | -1.16 | 1.19 | 21 | 3.09 | 3.36 | 6.1 | 12.5 | 6.29 | 12.6 | 8.2 | 0.59 | inhibition at 10 µM (CCRF-CEM): 8.27%; inhibition at 10 µM (NCI-H522): 5.36%; inhibition at 10 µM (NCI/ADR-RES): 4.39%; inhibition at 10 µM (OVCAR-5): -3.35%; inhibition at 10 µM (RPMI-8226): 15.2%; inhibition at 10 µM (SF-295): 4.7%; inhibition at 10 µM (SK-MEL-28): -7.83%; inhibition at 10 µM (SK-MEL-5): 11.7%; inhibition at 10 µM (SK-OV-3): -2%; inhibition at 10 µM (SN12C): 2.56%; inhibition at 10 µM (SNB-19): 9.82%; inhibition at 10 µM (SNB-75): -6.42%; inhibition at 10 µM (SR): 21.7%; inhibition at 10 µM (T-47D): 15.8%; inhibition at 10 µM (U251): 9.28%; inhibition at 10 µM (UACC-257): -10.9%
5 | COc1cc(/C=C2/C(=O)Nc3cc(Cl)ccc32)ccc1OCc1ccc(F)cc1 [6m] | 6.43 | 4.26 | -10.2 | -4.25 | 23.5 | 7.12 | -20.4 | 4.08 | 10.8 | 8.25 | -5.1 | 27.3 | -2.27 | 6.49 | 7.28 | -0.43 | 8.79 | -0.55 | 1.78 | 1.02 | inhibition at 10 µM (NCI-H522): 7.08%; inhibition at 10 µM (NCI/ADR-RES): -0.91%; inhibition at 10 µM (OVCAR-5): 1.44%; inhibition at 10 µM (RPMI-8226): -13.2%; inhibition at 10 µM (SF-295): 2.87%; inhibition at 10 µM (SK-MEL-28): -5.13%; inhibition at 10 µM (SK-MEL-5): 1.04%; inhibition at 10 µM (SK-OV-3): 2.75%; inhibition at 10 µM (SN12C): 4.13%; inhibition at 10 µM (SNB-19): -3.75%; inhibition at 10 µM (SNB-75): -4.47%; inhibition at 10 µM (SR): 2.45%; inhibition at 10 µM (T-47D): 5.94%; inhibition at 10 µM (U251): -10.6%; inhibition at 10 µM (UACC-257): -9.31%
